From patent US12377100B2 (GILEAD SCIENCES, INC., priority 2015, dated 2025)

Assays:
Format in all cases: cell-based
Details in all cases: human PBMCs, 24 hours incubation
IL12p40 = assay: PBMC cytokine profiling assay, IL12-p40 induction
Description: (§1) Certain compounds disclosed herein we tested according to the procedure described below. Additionally, certain reference compounds were prepared and tested along with the compounds of the present disclosure.
(§2) Compounds were dissolved and stored in DMSO (Sigma-Aldrich, St. Louis, MO) at 10 mM concentration.
(§3) Cryopreserved human PBMCs isolated from healthy donors were purchased from StemCell Technologies (Vancouver, Canada). Cell culture medium used was RPMI with L-Glutamine (Mediatech, Manassas, VA) supplemented with 10% fetal bovine serum (Hyclone, GE Healthcare, Logan, UT) and Penicillin-Streptomycin (Mediatech). Human TNFα, IL12p40, and IFNα2a 384-well Assay capture plates, standards, buffers and processing reagents were obtained from MesoScale Discovery Technologies (MSD; Rockville, MD).
(§4) Cryopreserved human PBMCs (1×10e8 cells/ml) were thawed at 37° C. and resuspended in 25 mL warm cell culture medium. The cells were pelleted at 200×g (Beckman Avanti J-E) for 5 min and resuspended in 20 mL of fresh culture media. Cells were counted using a Cellometer (Nexcelcom Bioscience), adjusted to 2×10e6 cells, and incubated for 2 hours in an incubator set at 37° C., 5% CO2 to recover from cryopreservation. Compounds were serially diluted in DMSO at half-log steps to generate a 10-point dose range. Using a Bravo pipette equipped with a 384 well head (Agilent), 0.4 μL of compound was transferred to each well of a 384 well black, clear bottom plate (Greiner Bio-One, Germany) containing 30 μL of cell culture medium. Recovered PBMCs were then dispensed into the assay plate at 50 μL per well (100k cells/well) using the MicroFlow multichannel dispenser (Biotek). Final DMSO concentration was 0.5%. DMSO was used as the negative control. The plates were incubated for 24 hours at 37° C. PBMCs in the assay plate were pelleted by centrifugation (Beckman Avanti J-E) at 200×g for 5 min.
(§5) Using a Biomek FX 384 well pipetting station (Beckman), conditioned culture medium (CCM) from the assay plate was transferred to MSD capture plates customized for each cytokine. For IFNα and IL12-p40 detection, 25 μL and 20 μL of CCM were added directly to each capture plate, respectively. For TNFα detection, CCM was diluted 1:9 in fresh culture medium, and 20 μL of diluted CCM was used. Serially diluted calibration standards for each cytokine were used to generate standard curves and establish assay linearity. The plates were sealed and incubated overnight at 4° C. in a plate shaker (Titer Plate) set at 200 rpm. On the following day, antibodies specific for each cytokine were diluted 1:50 in MSD Diluent 100 antibody dilution buffer. Diluted antibodies were added to corresponding capture plates at 10 μL/well, and incubated at RT for 1-2 hrs in the shaker. The plates were washed with PBST buffer (3×, 60 μl/well) using a Biotek Multiflow plate washer. MSD Read Buffer diluted to 2× in deionized water and 35 μL/well was added via Biomek FX instrument. The plates were read immediately in a MSD6000 reader. Data were normalized to positive and negative controls in each assay plate. AC50 values represent compound concentrations at half-maximal effect based on normalized percent activation and calculated by non-linear regression using Pipeline Pilot software (Accelrys, San Diego, CA).

IFNα = assay: PBMC cytokine profiling assay, IFNα induction
Description: as §1, §2, §3, §4, §5

TNFα = assay: PBMC cytokine profiling assay, TNFα induction
Description: as §1, §2, §3, §4, §5

Compound | AC50 (IL12p40; Homo sapiens, PBMC, 24 h) [µM] | AC50 (IFNα; Homo sapiens, PBMC, 24 h) [µM] | AC50 (TNFα; Homo sapiens, PBMC, 24 h) [µM] | further results
CCCC[C@H](CO)Nc1nc(N)nc2cc(F)cnc12 [Example 44, (R)-2-((2-amino-7-fluoropyrido[3,2-d]pyrimidin-4-yl)amino)hexan-1-ol] | 2.4 | > 50 | 3 | –
CCC[C@@H](CO)Nc1nc(N)nc2cc(CC)cnc12 [Example 21, (S)-2-((2-amino-7-ethylpyrido[3,2-d]pyrimidin-4-yl)amino)pentan-1-ol] | 2.3 | 4.8 | 3.1 | –
C[C@@H](CN)Nc1nc(N)nc2cccnc12 [Example 49, (S)—N^4-(1-aminopropan-2-yl)pyrido[3,2-d]pyrimidine-2,4-diamine] | – | – | – | AC50 (IL12p40; PBMC): 18.1 µM; AC50 (IFNα; PBMC): 41.6 µM; AC50 (TNFα; PBMC): 22.4 µM
CCC[C@H](Nc1nc(N)nc2cccnc12)C(=O)NCCN [Example 36, (S)—N-(2-aminoethyl)-2-((2-aminopyrido[3,2-d]pyrimidin-4-yl)amino)pentanamide] | 10.8 | > 50 | 21.5 | –
CCCC[C@@H](Nc1nc(N)nc2cccnc12)C(CF)NC(C)=O (stereo partly drawn) [Example 91, N-((3R)-3-((2-aminopyrido[3,2-d]pyrimidin-4-yl)amino)-1-fluoroheptan-2-yl)acetamide] | 1.9 | > 50 | 2 | –
C=CCC[C@](C)(CO)Nc1nc(N)nc2cccnc12 [Example 83, (R)-2-((2-aminopyrido[3,2-d]pyrimidin-4-yl)amino)-2-methylhex-5-en-1-ol] | 1.8 | 43.1 | 1.7 | –
CCC[C@@H](CO)Nc1nc(N)nc2cc(C)cnc12 [Example 20, (S)-2-((2-amino-7-methylpyrido[3,2-d]pyrimidin-4-yl)amino)pentan-1-ol] | 2.8 | 5.4 | 3.2 | –
CCCCC[C@](C)(CO)Nc1nc(N)nc2cc(F)cnc12 [Example 112, (R)-2-((2-amino-7-fluoropyrido[3,2-d]pyrimidin-4-yl)amino)-2-methylheptan-1-ol] | – | – | – | AC50 (IL12p40): 0.33 µM; AC50 (IFNα): > 50 µM; AC50 (TNFα): 0.36 µM
Nc1nc(NCCCO)c2ncccc2n1 [Example 13, 3-((2-aminopyrido[3,2-d]pyrimidin-4-yl)amino)propan-1-ol] | > 50 | > 50 | > 50 | –
CCCC[C@@H](CO)Nc1nc(N)nc2cccnc12 [Example 14, (S)-2-((2-aminopyrido[3,2-d]pyrimidin-4-yl)amino)hexan-1-ol] | 0.94 | 1.6 | 1.1 | –
CCCCCNc1nc(N)nc2cccnc12 [Example 11, N^4-pentylpyrido[3,2-d]pyrimidine-2,4-diamine] | 6 | 6.9 | 10.1 | –
CC(C)C[C@@H](CO)Nc1nc(N)nc2cccnc12 [Example 3B, (S)-2-((2-aminopyrido[3,2-d]pyrimidin-4-yl)amino)-4-methylpentan-1-ol] | 15.5 | 14.5 | 29.4 | –
Nc1nc(NCCCC(F)(F)F)c2ncccc2n1 [Example 29, N^4-(4,4,4-trifluorobutyl)pyrido[3,2-d]pyrimidine-2,4-diamine] | 15.5 | 3.9 | 18.3 | –
CCCCNc1nc(N)nc2cccnc12 [Example 1B, N^4-butylpyrido[3,2-d]pyrimidine-2,4-diamine] | 2 | 2.7 | 3.9 | –
CCCC[C@H](CO)Nc1nc(N)nc2cc(C)cnc12 [Example 107, (R)-2-((2-amino-7-methylpyrido[3,2-d]pyrimidin-4-yl)amino)hexan-1-ol] | 1.8 | > 50 | 2.8 | –
CCCC[C@H](CO)Nc1nc(N)nc2ccccc12 [Example 47B, (R)-2-((2-aminoquinazolin-4-yl)amino)hexan-1-ol] | 2 | > 50 | 2.7 | –

Compound | AC50 (IL12p40; Homo sapiens, PBMC, 24 h) [µM] | AC50 (IFNα; Homo sapiens, PBMC, 24 h) [µM] | AC50 (TNFα; Homo sapiens, PBMC, 24 h) [µM] | further results
CCCC[C@@H](Nc1nc(N)nc2cccnc12)c1ncc[nH]1 [Example 55, (R)—N^4-(1-(1H-imidazol-2-yl)pentyl)pyrido[3,2-d]pyrimidine-2,4-diamine] | 21.5 | 28.8 | 23.9 | –
CCCCC[C@](C)(CNC(C)=O)Nc1nc(N)nc2cccnc12 [Example 116, (R)—N-(2-((2-aminopyrido[3,2-d]pyrimidin-4-yl)amino)-2-methylheptyl)acetamide] | 0.11 | > 50 | 0.036 | –
CCC[C@@H](CO)Nc1nc(N)nc2cc(Cl)cnc12 [Example 19E, (S)-2-((2-amino-7-chloropyrido[3,2-d]pyrimidin-4-yl)amino)pentan-1-ol] | 2.5 | 21.6 | 3.3 | –
CCCC[C@H](CO)Nc1nc(N)nc2ccc(C)nc12 [Example 39C, (R)-2-((2-amino-6-methylpyrido[3,2-d]pyrimidin-4-yl)amino)hexan-1-ol] | 41.5 | > 50 | > 50 | –
C=CCC[C@H](CO)Nc1nc(N)nc2cccnc12 [Example 72, (R)-2-((2-aminopyrido[3,2-d]pyrimidin-4-yl)amino)hex-5-en-1-ol] | 7 | > 50 | 7.2 | –
CCCC[C@@H](CO)Nc1nc(N)nc2c(C)ccnc12 [Example 58, (S)-2-((2-amino-8-methylpyrido[3,2-d]pyrimidin-4-yl)amino)hexan-1-ol] | 3.8 | 4.1 | 3.9 | –
CCC[C@H](Nc1nc(N)nc2cccnc12)C(=O)NC [Example 31, (S)-2-((2-aminopyrido[3,2-d]pyrimidin-4-yl)amino)-N-methylpentanamide] | 4.7 | 32.9 | 4.7 | –
CCCCNc1nc(N)nc2c(C)ccnc12 [Example 25E, N^4-butyl-8-methylpyrido[3,2-d]pyrimidine-2,4-diamine] | 19.7 | 12.3 | 20 | –
CCCCC(C)(CO)Nc1nc(N)nc2cc(F)cnc12 (stereo not drawn) [Example 63, 2-((2-amino-7-fluoropyrido[3,2-d]pyrimidin-4-yl)amino)-2-methylhexan-1-ol] | 0.43 | 22.4 | 0.41 | –
CCC[C@@H](CO)Nc1nc(N)nc2cc(Br)cnc12 [Example 18F, (S)-2-((2-amino-7-bromopyrido[3,2-d]pyrimidin-4-yl)amino)pentan-1-ol] | 15.2 | 30.6 | 16.1 | –
CCC[C@@H](CO)Nc1nc(N)nc2cc(OC)cnc12 [Example 42B, (S)-2-((2-amino-7-methoxypyrido[3,2-d]pyrimidin-4-yl)amino)pentan-1-ol] | 0.9 | 3.6 | 1.1 | –
CSCC[C@@H](CO)Nc1nc(N)nc2cccnc12 [Example 10, (S)-2-((2-aminopyrido[3,2-d]pyrimidin-4-yl)amino)-4-(methylthio)butan-1-ol] | 23.8 | > 50 | 29.2 | –
CCCC[C@](C)(CN[C@@H](C)C(F)(F)F)Nc1nc(N)nc2cccnc12 [Example 118, N^4—((R)-2-methyl-1-(((S)-1,1,1-trifluoropropan-2-yl)amino)hexan-2-yl)pyrido[3,2-d]pyrimidine-2,4-diamine] | 9.1 | > 50 | 9.3 | –
CC(C)(O)CC[C@H](CO)Nc1nc(N)nc2cccnc12 [Example 110] | 32.6 | 32.6 | 32.6 | –
CCCC[C@H](CO)Nc1nc(N)nc2cc(CC)cnc12 [Example 71, (R)-2-((2-amino-7-ethylpyrido[3,2-d]pyrimidin-4-yl)amino)hexan-1-ol] | 2.7 | > 50 | 2.6 | –
CCCCC(CC)(CO)Nc1nc(N)nc2cccnc12 (stereo not drawn) [Example 85, 2-((2-aminopyrido[3,2-d]pyrimidin-4-yl)amino)-2-ethylhexan-1-ol] | 0.8 | 4 | 0.86 | –
